This passage reports responders and ED50 results from patent US5428038A, “Benzopyranones, a method for producing them and uses therefor” (Dr. Willmar Schwabe GmbH & Co., priority 1991, dated 1995).

Each structure is given as a SMILES string.

Usually ED50 stands for the dose that gives a 50% effect, or the effect in half of the subjects.

The test system of the assay is NMDA-induced death. Put plainly: NMDA test (25 mg/kg i.v.), prevention of NMDA-induced death (neuroprotective efficacy). The assay is classed as in vivo, male NMRI mice. The conditions noted are these: Mus musculus, po, NMDA 25 mg/kg i.v.; for responders at 25 mg/kg: 25 mg/kg p.o. 1 h before test; for ED50: 1 h, dose protecting 50% of animals against NMDA-induced death one hour after application; for responders at 5 mg/kg: 5 mg/kg p.o. 1 h before test; for responders at 100 mg/kg: 100 mg/kg p.o. 1 h before test. On the procedure:
In order to determine the neuroprotective and anticonvulsive activity of the compounds in accordance with the invention of the general formula I, two slightly different methods were employed as follows: […]
1. In order to determine the neuroprotective efficacy NMDA at a rate of 25 mg/kg/10 ml was administered intravenously to male NMRI mice with a body weight of 20 to 25 g. As a consequence of this application the animals suffer clonic and partly tonic convulsions, which lead to death. As a criterion for the efficacy of the investigated compounds prevention of death is used.
All animals used in the investigations had free access to food and water prior to the experiments. The test and reference substances were all administered as a suspension in 0.2% agar or water, partly by the intermediary of solution promoters such as for instance PEG-400, perorally using an esophageal probe. Control animals received the same volumes of the solvent with optional solution promoters. One hour after the application of the substance NMDA was administered intravenously and the animals observed for the occurrence of convulsions.
In table 1 the results of the tests (NMDA 25 mg i.v.) performed in accordance with method 1 are compiled with dosages of 5-100 mg of the compounds in accordance with the invention per kg of body weight as compared with known NMDA-antagonists. As a percentage efficacy the percentage of surviving animals is used.
The determination of the ED50 values was performed in accordance with the method described in Lichtfield and Wilcoxon, J. Pharmacol. exp. Therapeut. 96, 99 (1949) in each case with 4 to 5 groups of 10 animals per dosage rate.

The mark [1] stands for this setting: read-out: Protective action (percentage of surviving animals).

Turning to `O=c1ccc2cc(OC3CCCC3)c(OCCCN3CCC(c4ccccc4)CC3)cc2o1` [Example 13, 6-(cyclopentyloxy)-7-[3-(4-phenyl-1-piperidinyl)propoxy]-2H-1-benzopyran-2-one], the responders at 25 mg/kg under setting [1] stood at 100%.

`COc1cc2oc(=O)c3c(c2cc1OCCCN1CCN(c2ccccc2OC)CC1)CCC3` [Example 54, 2,3-dihydro-7-methoxy-8-{3-[4-(2-methoxyphenyl)-1-piperazinyl]propoxy}cyclopenta[c][1]benzopyran-4(1H)-one] displayed an ED50 of 0.4 mg/kg. The responders at 5 mg/kg under setting [1] was determined as 100%.

In the case of `COc1cc2oc(=O)c3c(c2cc1OCCCN1CCN(c2ccccc2C)CC1)CCC3` [Example 59, 2,3-dihydro-7-methoxy-8-{3-[4-(2-methylphenyl)-1-piperazinyl]propoxy}cyclopenta[c][1]benzopyran-4(1H)-one], the ED50 amounted to 1.1 mg/kg. The responders at 5 mg/kg under setting [1] worked out at 100%.

Take `COc1cc2oc(=O)c3c(c2cc1OCCCN1CCC(Cc2ccccc2)CC1)CCC3` [Example 64]: the responders at 25 mg/kg under setting [1] stood at 75%.

`COc1cc2oc(=O)c3c(c2cc1OCCCCCN1CCN(c2ccccc2)CC1)CCC3` [Example 47, 2,3-dihydro-7-methoxy-8-[5-(4-phenyl-1-piperazinyl)pentyloxy]cyclopenta[c][1]benzopyran-4(1H)-one]: the responders at 5 mg/kg under setting [1] worked out at 62.5%.

For the compound `COc1cc2oc(=O)cc(C(F)(F)F)c2cc1OCCCN1CCC(c2ccccc2)CC1` [Example 32, 7-methoxy-6-[3-(4-phenyl-1-piperidinyl)propoxy]-4-(trifluoromethyl)-2H-1-benzopyran-2-one], the responders at 25 mg/kg under setting [1] was 62.5%.

`CCCc1cc(=O)oc2cc(OC)c(OCCCN3CCN(c4ccccc4)CC3)cc12` [Example 33] registered an ED50 of 4.4 mg/kg. Further, the responders at 25 mg/kg under setting [1] was determined as 100%.

The compound `COc1ccc(N2CCN(CCCOc3cc4c5c(c(=O)oc4cc3OC)CCC5)CC2)cc1` [Example 56, 2,3-dihydro-7-methoxy-8-{3-[4-(4-methoxyphenyl)-1-piperazinyl]propoxy}cyclopenta[c][1]benzopyran-4(1H)-one] yielded an ED50 of 2.6 mg/kg. Under setting [1], the responders at 5 mg/kg amounted to 87.5%.

Take `COc1cc2oc(=O)c3c(c2cc1OCCCN1CCN(c2ccccc2F)CC1)CCC3` [Example 66, 8-{3-[4-(2-fluorophenyl)-1-piperazinyl]propoxy}-2,3-dihydro-7-methoxy-cyclopenta[c][1]benzopyran-4(1H)-one]: the responders at 5 mg/kg under setting [1] turned out to be 100%.

In the case of `COc1cc2oc(=O)c3c(c2cc1OCCCCCN1CCC(c2ccccc2)CC1)CCC3` [Example 51, 2,3-dihydro-7-methoxy-8-[5-(4-phenyl-1-piperidinyl)pentyloxy]cyclopenta[c][1]benzopyran-4(1H)-one], the responders at 5 mg/kg under setting [1] amounted to 12.5%.

Consider `COc1cc2oc(=O)c(C)c(C)c2cc1OCCCN1CCC(c2ccccc2)CC1` [Example 29, 7-methoxy-3,4-dimethyl-6-[3-(4-phenyl-1-piperidinyl)propoxy]-2H-1-benzopyran-2-one], for which the responders at 25 mg/kg under setting [1] amounted to 87.5%.

On to `COc1cc2oc(=O)cc(C(F)(F)F)c2cc1OCCCN1CCN(c2ccccc2)CC1` [Example 31], for which the responders at 25 mg/kg under setting [1] is 87.5%.

Consider `CCOc1cc2oc(=O)ccc2cc1OCCCN1CCN(c2ccccc2OC)CC1` [Example 7, 7-ethoxy-6-{3-[4-(2-methoxyphenyl)-1-piperazinyl]propoxy}-2H-1-benzopyran-2-one], for which the 50% effect level (ED50) was put at a dose of 0.9 mg/kg. The responders at 5 mg/kg under setting [1] was 100%.

Regarding `COc1cc2oc(=O)c(C)c(C)c2cc1OCCCN1CCN(Cc2ccc(Cl)cc2)CC1` [Example 30, 6-{3-[4-(4-chlorophenylmethyl)-1-piperazinyl]-propoxy}-7-methoxy-3,4-dimethyl-2H-1-benzopyran-2-one], under setting [1], the responders at 100 mg/kg is 37.5%.

In the case of `COc1cc2oc(=O)c3c(c2cc1OCCCN1CCN(c2ccc([N+](=O)[O-])cc2)CC1)CCC3` [Example 61, 2,3-dihydro-7-methoxy-8-{3-[4-(4-nitrophenyl)-1-piperazinyl]propoxy}cyclopenta[c][1]benzopyran-4(1H)-one], the responders at 100 mg/kg under setting [1] amounted to 25%.

Take `CCCCc1c(C)c2cc(OCCCN3CCN(c4ccccc4)CC3)c(OC)cc2oc1=O` [Example 37, 3-butyl-7-methoxy-4-methyl-6-[3-(4-phenyl-1-piperazinyl)propoxy]-2H-1-benzopyran-2-one]: under setting [1], the responders at 25 mg/kg worked out at 100%.

As to `COc1cc2oc(=O)ccc2cc1OCC(O)CN1CCC(O)(c2ccccc2)CC1` (racemic) [Example 24, (±)-6-[2-hydroxy-3-(4-hydroxy-4-phenyl-1-piperidinyl)propoxy]-7-methoxy-2H-1-benzopyran-2-one], the responders at 100 mg/kg under setting [1] stood at 37.5%.

In the case of `CNC1(c2ccccc2Cl)CCCCC1=O` (centres unmarked) [ketamine, reference compound], the responders at 20 mg/kg (20 mg/kg p.o. 1 h before test, read-out: Protective action (percentage of surviving animals)) came to 0%.

For `COc1cc2oc(=O)ccc2cc1OCCCN1CCC(c2ccccc2)CC1` [Example 9, 7-methoxy-6-[3-(4-phenyl-1-piperidinyl)propoxy]-2H-1-benzopyran-2-one], the responders at 25 mg/kg under setting [1] was determined as 50%.

For the compound `COc1cc2oc(=O)cc(C(C)C)c2cc1OCCCN1CCC(c2ccccc2)CC1` [Example 36, 7-methoxy-4-(1-methylethyl)-6-[3-(4-phenyl-1-piperidinyl)propoxy]-2H-1-benzopyran-2-one], the responders at 25 mg/kg under setting [1] worked out at 50%.

As to `COc1cc2oc(=O)ccc2cc1OCC(O)CN1CCC(c2ccccc2)CC1` (racemic) [Example 22, (±)-6-[2-hydroxy-3-(4-phenyl-1-piperidinyl)-propoxy]-7-methoxy-2H-1-benzopyran-2-one], the responders at 100 mg/kg under setting [1] amounted to 37.5%.

As for `COc1cc2oc(=O)c3c(c2cc1OCCCN1CCN(c2ccccc2Cl)CC1)CCC3` [Example 58, 8-{3-[4-(2-chlorophenyl)-1-piperazinyl]propoxy}-2,3-dihydro-7-methoxy-cyclopenta[c][1]benzopyran-4(1H)-one], the ED50 was 1.8 mg/kg. Further, the responders at 5 mg/kg under setting [1] was determined as 100%.

Take `CCOc1ccccc1N1CCN(CCCOc2cc3c4c(c(=O)oc3cc2OC)CCC4)CC1` [Example 57, 8-{3-[4-(2-ethoxyphenyl)-1-piperazinyl]propoxy}-2,3-dihydro-7-methoxy-cyclopenta[c][1]benzopyran-4(1H)-one]: the responders at 5 mg/kg under setting [1] is 100%.

As for `CCOc1cc2oc(=O)ccc2cc1OCCCN1CCN(c2ccccc2)CC1` [Example 3, 7-ethoxy-6-[3-(4-phenyl-1-piperazinyl)propoxy]-2H-1-benzopyran-2-one], the responders at 5 mg/kg under setting [1] amounted to 62.5%.

On to `COc1cc2oc(=O)c3c(c2cc1OCCCCN1CCC(c2ccccc2)CC1)CCC3` [Example 50, 2,3-dihydro-7-methoxy-8-[4-(4-phenyl-1-piperidinyl)butyloxy]cyclopenta[c][1]benzopyran-4(1H)-one], for which the responders at 25 mg/kg under setting [1] was 87.5%.

Take `COc1cc2oc(=O)ccc2cc1OCC(O)CN1CCN(c2cccc(C(F)(F)F)c2)CC1` (racemic) [Example 20, (±)-6-{2-hydroxy-3-[4-(3-trifluoromethylphenyl)-1-piperazinyl]propoxy}-7-methoxy-2H-1-benzopyran-2-one]: under “50 mg/kg p.o. 1 h before test, read-out: Protective action (percentage of surviving animals)”, the responders at 50 mg/kg turned out to be 87.5%.

Regarding `COc1cc2oc(=O)cc(C(C)C)c2cc1OCCCN1CCN(c2ccccc2)CC1` [Example 35, 7-methoxy-4-(1-methylethyl)-6-[3-(4-phenyl-1-piperazinyl)propoxy]-2H-1-benzopyran-2-one], the responders at 5 mg/kg under setting [1] was 75%.

Regarding `COc1cc2ccc(=O)oc2cc1OCCCN1CCN(c2ccccc2)CC1` [Example 2, 6-methoxy-7-[3-(4-phenyl-1-piperazinyl)propoxy]-2H-1-benzopyran-2-one], under setting [1], the responders at 25 mg/kg came out at 100%.

With `COc1cc2oc(=O)c3c(c2cc1OCCCN1CCC(C(O)(c2ccc(F)cc2)c2ccc(F)cc2)CC1)CCC3` [Example 65, 8-{3-[4-(bis(4-fluorophenyl)hydroxymethyl)-1-piperidinyl]propoxy}-2,3-dihydro-7-methoxy-cyclopenta[c][1]benzopyran-4(1H)-one], the responders at 100 mg/kg under setting [1] is 12.5%.

Compound `COc1cc2oc(=O)c3c(c2cc1OCCN1CCN(c2ccccc2)CC1)CCC3` [Example 44, 2,3-dihydro-7-methoxy-8-[2-(4-phenyl-1-piperazinyl)ethoxy]cyclopenta[c][1]benzopyran-4(1H)-one] returned an ED50 of 4.8 mg/kg. For the same compound, under setting [1], the responders at 25 mg/kg was found to be 87.5%.

As for `COc1cc2oc(=O)c3c(c2cc1OCCCN1CCN(c2ccccc2O)CC1)CCC3` [Example 60, 2,3-dihydro-8-{3-[4-(2-hydroxyphenyl)-1-piperazinyl]propoxy}-7-methoxy-cyclopenta[c][1]benzopyran-4(1H)-one], the responders at 5 mg/kg under setting [1] came out at 62.5%.
